Measured values as given in the NIST ThermoML archive (doi:10.1021/je025649t).

How the values were obtained:
[1] = xn = mol fraction of the nth substance listed; details: 298.15 K, 101 kPa, Liquid, Vibrating tube method
[2] = refractive index (Na D-line) (dimensionless); xn = mol fraction of the nth substance listed; details: 298.15 K, 101 kPa, Liquid, refractometer
[3] = heat capacity at constant pressure per volume; xn = mol fraction of the nth substance listed; details: 298.15 K, 101 kPa, Liquid, Flow calorimetry
[4] = excess molar enthalpy (molar enthalpy of mixing); xn = mol fraction of the nth substance listed; details: 298.15 K, 101 kPa, Liquid, Flow calorimetry

O=C1CCCC1 [cyclopentanone] + C1CCOCC1
Details	excess molar enthalpy [kcal/mol]	heat capacity [J/K/m3]	mass density [kg/m3]	refractive index
[1], x2 = 0.0621	–	–	939.88	–
[1], x2 = 0.1532	–	–	933.66	–
[1], x2 = 0.2354	–	–	928.1	–
[1], x2 = 0.309	–	–	923.12	–
[1], x2 = 0.3167	–	–	922.64	–
[1], x2 = 0.346	–	–	920.67	–
[1], x2 = 0.3516	–	–	920.32	–
[1], x2 = 0.3936	–	–	917.52	–
[1], x2 = 0.3997	–	–	917.16	–
[1], x2 = 0.4297	–	–	915.15	–
[1], x2 = 0.4312	–	–	915.07	–
[1], x2 = 0.4661	–	–	912.74	–
[1], x2 = 0.4676	–	–	912.7	–
[1], x2 = 0.5105	–	–	909.9	–
[1], x2 = 0.5187	–	–	909.32	–
[1], x2 = 0.5466	–	–	907.55	–
[1], x2 = 0.5498	–	–	907.3	–
[1], x2 = 0.5959	–	–	904.37	–
[1], x2 = 0.6289	–	–	902.25	–
[1], x2 = 0.6335	–	–	901.96	–
[1], x2 = 0.6618	–	–	900.16	–
[1], x2 = 0.708	–	–	897.22	–
[1], x2 = 0.7941	–	–	891.79	–
[1], x2 = 0.8569	–	–	887.85	–
[1], x2 = 0.9351	–	–	882.98	–
[1], x2 = 0.939	–	–	882.71	–
[2], x2 = 0.0723	–	–	–	1.4337
[2], x2 = 0.153	–	–	–	1.43231
[2], x2 = 0.2311	–	–	–	1.43098
[2], x2 = 0.3083	–	–	–	1.42967
[2], x2 = 0.3514	–	–	–	1.42895
[2], x2 = 0.3917	–	–	–	1.42828
[2], x2 = 0.4314	–	–	–	1.42762
[2], x2 = 0.4691	–	–	–	1.427
[2], x2 = 0.5026	–	–	–	1.42645
[2], x2 = 0.5485	–	–	–	1.42571
[2], x2 = 0.5911	–	–	–	1.42502
[2], x2 = 0.6215	–	–	–	1.42454
[2], x2 = 0.6618	–	–	–	1.4239
[2], x2 = 0.7097	–	–	–	1.42314
[2], x2 = 0.7897	–	–	–	1.42189
[2], x2 = 0.8648	–	–	–	1.42073
[2], x2 = 0.9456	–	–	–	1.41948
[3], x2 = 0.0715	–	1697900	–	–
[3], x2 = 0.1485	–	1683000	–	–
[3], x2 = 0.2279	–	1667700	–	–
[3], x2 = 0.3826	–	1638300	–	–
[3], x2 = 0.4613	–	1623300	–	–
[3], x2 = 0.5422	–	1608000	–	–
[3], x2 = 0.6258	–	1592400	–	–
[3], x2 = 0.6965	–	1579400	–	–
[3], x2 = 0.777	–	1564600	–	–
[3], x2 = 0.8588	–	1549700	–	–
[3], x2 = 0.9378	–	1535300	–	–
[4], x2 = 0.1	0.0127	–	–	–
[4], x2 = 0.15	0.0181	–	–	–
[4], x2 = 0.2	0.023	–	–	–
[4], x2 = 0.25	0.0271	–	–	–
[4], x2 = 0.3	0.0304	–	–	–
[4], x2 = 0.35	0.0331	–	–	–
[4], x2 = 0.4	0.0353	–	–	–
[4], x2 = 0.45	0.0368	–	–	–
[4], x2 = 0.5	0.0377	–	–	–
[4], x2 = 0.55	0.0378	–	–	–
[4], x2 = 0.6	0.0371	–	–	–
[4], x2 = 0.65	0.0357	–	–	–
[4], x2 = 0.7	0.0336	–	–	–
[4], x2 = 0.75	0.0306	–	–	–
[4], x2 = 0.8	0.0267	–	–	–
[4], x2 = 0.85	0.0219	–	–	–
[4], x2 = 0.9	0.0158	–	–	–
